Test results reported in patent publication US8460689B2, “Oral care method and kit” (3M Innovative Properties Company, priority 2009, dated 2013).

Experiments:
[1] = tested on: MRSA (methicillin-resistant Staphylococcus aureus), ATCC 33592; assay: Test Method B2 - Second Antimicrobial Efficacy Testing; format: cell-based; settings: 4 minutes
Protocol: A 0.22% wt/wt solution of CHG was prepared at a pH of 6. All pH adjustments were made using either gluconic acid or sodium hydroxide. Each of the above excipient solutions (5 mL) were mixed with an equal amount (5 mL) of CHG solution (0.22% wt/wt). The mixtures were allowed to stand for 15 minutes at ambient conditions, along with a control CHG solution. All of these samples were centrifuged at 14,000 g for 15 minutes. After centrifugation, supernatant was carefully transferred to a new vial and submitted for Antimicrobial Efficacy testing (TEST METHOD B2) and HPLC testing (TEST METHOD C2), see below.
For Test Method B2 the above Test Method B was followed, with the following changes: • 1. Bacteria was MRSA (methicillin-resistant Staphylococcus aureus), ATCC 33592, instead of P. aeruginosa. • 2. Inoculum level was approximately 6.2 logs, instead of 5.8 logs. • 3. Incubation time with MRSA was 4 minutes, instead of 2.5 minutes. • 4. Neutralizer was Neutralizing Buffer, instead of D/E Neutralizing Broth. • 5. Incubation of the Petrifilm plates was 38 hours, instead of 43 hours.

[2] = Evaluation of Precipitate Formation with CHG; format: physicochemical; settings: 1:1 mixture of excipient solution with 3.72% CHG, visual within 30 minutes; for Precipitation at Low pH: low pH per sample
Protocol: It is thought that some excipients (inactives) may form a CHG complex, which is visible as a precipitate. Thus, CHG which complexes with an excipient, forming a precipitate would not be available for antimicrobial efficacy. The purpose of the precipitation formation testing was to observe the potential of an excipient to form a precipitates with CHG under the following test conditions.
Sample excipient solutions were prepared with distilled water to various concentrations of excipients according to Tables 12-16, below. The pH of the solutions was then adjusted to both a low pH and a high pH using either gluconic acid or NaOH. […] After combining the CHG solution with the excipient solution, the vial of the mixture was briefly swirled to mix. The mixtures were visually assessed for the presence/formation of a precipitate within 30 minutes. The results are shown in Tables P1-P5, where “Y” means precipitate was observed; “N” means no precipitate was observed; “*1” means the mixture could not be tested because a gel-like mass was formed when adding gluconic acid to reduce the pH down; and “*2” means the mixture could not be tested because it started to thicken when adding NaOH to raise the pH.

Row | SMILES | Log Reduction of MRSA ([1]; CHG 0.22 wt % control, excipient 0.0 wt %) | Precipitation at High pH [2] | Precipitation at Low pH [2] | Log Reduction of MRSA ([1]; supernatant of 0.50 wt % excipient solution mixed with equal amount of 0.22 wt % CHG)
1 | N=C(NCCCCCCNC(=N)NC(=N)Nc1ccc(Cl)cc1)NC(=N)Nc1ccc(Cl)cc1.O=C(O)[C@H](O)[C@@H](O)[C@H](O)[C@H](O)CO.O=C(O)[C@H](O)[C@@H](O)[C@H](O)[C@H](O)CO [CHG Control, 1,11-hexamethylene bis[5-(p-chlorophenyl)biguanide]di-D-gluconate, reference compound] | 3.0 |  |  | 
2 | O=C1NS(=O)(=O)c2ccccc21.[Na] [P1, Sodium Saccharin] |  | Y | Y | 
3 | C/C=C/C=C/C(=O)[O-].[K+] [P4, Potassium Sorbate] |  | Y |  | 
4 | O=C([O-])c1ccccc1.[Na+] [P7, Sodium Benzoate] |  | Y | Y | 
5 | [Cl-].[K+] [P10, KCL] |  | Y | Y | 
6 | [Cl-].[K+] [P11, KCL] |  | Y | Y | 
7 | [Cl-].[K+] [P12, KCL] |  | N | N | 
8 | [Cl-].[Na+] [P13, NaCl] |  | Y | Y | 
9 | O=P(O)(O)O [P16, H3PO4] |  | Y | Y | 
10 | O=C(O)CC(O)(CC(=O)O)C(=O)O [P19, Citric Acid] |  | Y | Y | 
11 | O=C1[N-]S(=O)(=O)c2ccccc21.[Na+] [Sodium Saccharin, Benzoic Sulphimide Sodium Salt] |  |  |  | 0.0
